Data on 21 compounds can be found in patent US20230391736A1, “3-TETRAZOLYLMETHYL-1,3,5-TRIAZIN-2,4-DIONE COMPOUND INHIBITING CORONAVIRUS 3CL PROTEASE ACTIVITY AND PREPARATION METHOD AND USE THEREOF” (priority 2022, published 2023).

As a reminder, the IC50 is the midpoint of a concentration-inhibition curve.

The target in one experiment is SARS-CoV-2 3CL^pro (Severe acute respiratory syndrome coronavirus 2 (2019-nCoV) (SARS-CoV-2), UniProt P0DTD1). In words: biochemical. The settings on record: FRET, class symbols; read-out: IC50 (nM), inhibitory activity against 3CL^pro.
In the case of `Cn1cc2cc(/N=c3\[nH]c(=O)n(Cc4nnn[nH]4)c(=O)n3Cc3ccc(OC(F)(F)F)cc3)c(Cl)cc2n1` [Compound 11], the IC50 lay in the range of 500 to 1000 nM.

Regarding `CC(C)n1nnnc1Cn1c(=O)[nH]/c(=N\c2cc3cn(C)nc3cc2Cl)n(Cc2cc(F)c(F)cc2F)c1=O` [Compound 22], the IC50 fell in the range of 200 to 500 nM. The same measure, in the same setting: in the case of `Cn1cc2cc(/N=c3\[nH]c(=O)n(Cc4nnnn4C4CCC4)c(=O)n3Cc3cc(F)c(F)cc3F)c(Cl)cc2n1` [Compound 23] it was 500 to 1000 nM; in that of `Cc1ccc(Cn2c(Nc3cc4cn(C)nc4cc3Cl)nc(=O)n(Cc3nnn[nH]3)c2=O)cc1` [Compound 3, (E)-3-(1H-tetrazol-5-yl)methyl)-6-(6-chloro-2-methyl-2H-indazol-5-yl)imino)-1-(4-methylbenzyl)-1,3,5-triazin-2,4-dione], 500 to 1000 nM; in that of `Cn1cc2cc(/N=c3\[nH]c(=O)n(Cc4nnn[nH]4)c(=O)n3Cc3ccc(Br)cc3)c(Cl)cc2n1` [Compound 6], 200 to 500 nM. As to `Cn1cc2cc(/N=c3\[nH]c(=O)n(Cc4nnn[nH]4)c(=O)n3Cc3ccc(Cl)cc3)c(Cl)cc2n1` [Compound 5], the IC50 lay within 200 to 500 nM. In the case of `COc1cc(Cn2c(=O)n(Cc3nnn[nH]3)c(=O)[nH]/c2=N\c2cc3cn(C)nc3cc2Cl)cc(OC)c1` [Compound 14], the IC50 was 500 to 1000 nM. On the same count and under the same terms, in the case of `CCn1nnnc1Cn1c(=O)[nH]/c(=N\c2cc3cn(C)nc3cc2Cl)n(Cc2ccc(Cl)cc2)c1=O` [Compound 20] it was 200 to 500 nM; in that of `Cn1cc2cc(/N=c3\[nH]c(=O)n(Cc4nnn[nH]4)c(=O)n3Cc3ccccc3)c(Cl)cc2n1` [Compound 2, (E)-3-((1H-tetrazol-5-yl)methyl)-1-benzyl-6-((6-chloro-2-methyl-2H-indazol-5-yl)imino)-1,3,5-triazin-2,4-dione], 500 to 1000 nM; in that of `Cn1cc2cc(/N=c3\[nH]c(=O)n(Cc4nnnn4C)c(=O)n3Cc3cc(F)c(F)cc3F)c(Cl)cc2n1` [Compound 16], less than 200 nM. Turning to `Cn1cc2cc(/N=c3\[nH]c(=O)n(Cc4nnn[nH]4)c(=O)n3Cc3ccc([N+](=O)[O-])cc3)c(Cl)cc2n1` [Compound 9], the IC50 is greater than 1000 nM.

Regarding `Cn1cc2cc(Nc3nc(=O)n(Cc4nnn[nH]4)c(=O)n3Cc3ccc(C(F)(F)F)cc3)c(Cl)cc2n1` [Compound 8, (E)-3-(1H-tetrazol-5-yl)methyl)-6-(6-chloro-2-methyl-2H-indazol-5-yl)imino)-1-(4-(trifluoromethyl)benzyl)-1,3,5-triazin-2,4-dione], the IC50 was 500 to 1000 nM. As to `Cc1cc(C)cc(Cn2c(=O)n(Cc3nnn[nH]3)c(=O)[nH]/c2=N\c2cc3cn(C)nc3cc2Cl)c1` [Compound 13], the IC50 was 500 to 1000 nM. On the same count and under the same terms, as for `CC(C)Cn1nnnc1Cn1c(=O)[nH]/c(=N\c2cc3cn(C)nc3cc2Cl)n(Cc2cc(F)c(F)cc2F)c1=O` [Compound 24], the figure is greater than 1000 nM. The same measure, in the same setting: as for `Cn1cc2cc(/N=c3\[nH]c(=O)n(Cc4nnnn4C4CC4)c(=O)n3Cc3cc(F)c(F)cc3F)c(Cl)cc2n1` [Compound 21], the figure is 200 to 500 nM; as for `CCn1nnnc1Cn1c(=O)[nH]/c(=N\c2cc3cn(C)nc3cc2Cl)n(Cc2ccc(C(F)(F)F)cc2)c1=O` [Compound 18], 200 to 500 nM; as for `Cn1cc2cc(Nc3nc(=O)n(Cc4nnn[nH]4)c(=O)n3Cc3ccc(-c4ccccc4)cc3)c(Cl)cc2n1` [Compound 7, (E)-3-((1H-tetrazol-5-yl)methyl)-1-([1,1-biphenyl]-4-ylmethyl)-6-((6-chloro-2-methyl-2H-indazol-5-yl)imino)-1,3,5-triazin-2,4-dione], greater than 1000 nM. The same measure, in the same setting: as for `Cn1cc2cc(/N=c3\[nH]c(=O)n(Cc4nnn[nH]4)c(=O)n3Cc3ccc(C(C)(C)C)cc3)c(Cl)cc2n1` [Compound 4], the figure is 500 to 1000 nM; as for `COc1ccc(Cn2c(=O)n(Cc3nnn[nH]3)c(=O)[nH]/c2=N\c2cc3cn(C)nc3cc2Cl)cc1` [Compound 10], 200 to 500 nM. Regarding `CCn1nnnc1Cn1c(=O)[nH]/c(=N\c2ccc3nn(C)cc3c2)n(Cc2ccc([N+](=O)[O-])cc2)c1=O` [Compound 19], the IC50 is 200 to 500 nM. Still for that read-out and setting: in the case of `Cn1cc2cc(/N=c3\[nH]c(=O)n(Cc4nnn[nH]4)c(=O)n3Cc3cc(F)cc(F)c3)c(Cl)cc2n1` [Compound 15] it was less than 200 nM.

Staying with this experiment, now noted: FRET, non-linear regression; read-out: IC50 against 3CL^pro.
With `Cn1cc2cc(/N=c3\[nH]c(=O)n(Cc4nnnn4C)c(=O)n3Cc3cc(F)c(F)cc3F)c(Cl)cc2n1` [Compound 16], the IC50 is less than 200 nM.

In the case of `Cn1cc2cc(/N=c3\[nH]c(=O)n(Cc4nnn[nH]4)c(=O)n3Cc3cc(F)cc(F)c3)c(Cl)cc2n1` [Compound 15], the IC50 is less than 200 nM.
